According to ChEMBL document CHEMBL1201862, “PubChem BioAssay data set” (2004):
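Five concentrations, 48 hours, 96-well plates. GI50 is the concentration that inhibits growth by half.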 Active and inactive are the calls of the source. No stated cut-off is given here; in the data, active = GI50 up to about 1.1 µM and inactive = higher.

What was measured:
Experiment in all cases: growth of human tumour cells (NCI), 48 h
786-0 = tested on: 786-0
A498 = tested on: A498
A549 = tested on: A549
ACHN = tested on: ACHN
BT-549 = tested on: BT-549
CAKI-1 = tested on: CAKI-1
CCRF-CEM = tested on: CCRF-CEM
COLO 205 = tested on: COLO 205
DU-145 = tested on: DU-145
EKVX = tested on: EKVX
HCC 2998 = tested on: HCC 2998
HCT-116 = tested on: HCT-116
HCT-15 = tested on: HCT-15
HL-60 = tested on: HL-60
HOP-62 = tested on: HOP-62
HOP-92 = tested on: HOP-92
HT-29 = tested on: HT-29
Hs-578T = tested on: Hs-578T
IGROV-1 = tested on: IGROV-1
K562 = tested on: K562
KM12 = tested on: KM12
LOX IMVI = tested on: LOX IMVI
M14 = tested on: M14
MCF7 = tested on: MCF7
MDA-MB-231 = tested on: MDA-MB-231
MDA-MB-435 = tested on: MDA-MB-435
MDA-N = tested on: MDA-N
MOLT-4 = tested on: MOLT-4
Malme-3M = tested on: Malme-3M
NCI-H226 = tested on: NCI-H226
NCI-H23 = tested on: NCI-H23
NCI-H460 = tested on: NCI-H460
NCI-H522 = tested on: NCI-H522
NCI/ADR-RES = tested on: NCI/ADR-RES
OVCAR-3 = tested on: OVCAR-3
OVCAR-4 = tested on: OVCAR-4
OVCAR-5 = tested on: OVCAR-5
OVCAR-8 = tested on: OVCAR-8
PC-3 = tested on: PC-3
RXF 393 = tested on: RXF 393
SF-268 = tested on: SF-268
SF-295 = tested on: SF-295
SF-539 = tested on: SF-539
SK-MEL-28 = tested on: SK-MEL-28
SK-MEL-2 = tested on: SK-MEL-2
SK-MEL-5 = tested on: SK-MEL-5
SK-OV-3 = tested on: SK-OV-3
SN12C = tested on: SN12C
SNB-19 = tested on: SNB-19
SNB-75 = tested on: SNB-75
SR = tested on: SR
SW-620 = tested on: SW-620
T47D = tested on: T47D
TK-10 = tested on: TK-10
U-251 = tested on: U-251
UACC-257 = tested on: UACC-257
UACC-62 = tested on: UACC-62
UO-31 = tested on: UO-31
RPMI-8226 = tested on: RPMI-8226

SMILES: COC(=O)[C@]1(C)[C@H]2C[C@H]3O[C@H]4[C@H](O)[C@@H](O)OC(CC(O)C(C5=CC(=O)OC5)C(C5=CC(=O)OC5)C(O)CC56CCCCC7[C@@H](C)[C@H](C[C@H]8[C@](C)(C(=O)OC)[C@H](O)CC[C@]78C)O[C@H]([C@@H](O)[C@H](O)O5)[C@H]6O)(CCCCC([C@@H]3C)[C@]2(C)CC[C@@H]1O)[C@H]4O (stereo partly specified)
- GI50 (786-0): 31.8 nM (active)
- GI50 (A498): 91.6 nM (active)
- GI50 (A549): 28.6 nM (active)
- GI50 (ACHN): < 21.8 nM (active)
- GI50 (BT-549): 62.5 nM (active)
- GI50 (CAKI-1): 48.8 nM (active)
- GI50 (CCRF-CEM): 60.3 nM (active)
- GI50 (COLO 205): 338 nM (active)
- GI50 (DU-145): 62.8 nM (active)
- GI50 (EKVX): 29.5 nM (active)
- GI50 (HCC 2998): 655 nM (active)
- GI50 (HCT-116): 40.4 nM (active)
- GI50 (HCT-15): 143 nM
- GI50 (HL-60): 51.3 nM (active)
- GI50 (HOP-62): 65 nM (active)
- GI50 (HOP-92): 281 nM (active)
- GI50 (HT-29): 157 nM (active)
- GI50 (Hs-578T): < 25.1 nM (active)
- GI50 (IGROV-1): 95.9 nM (active)
- GI50 (K562): 234 nM (active)
- GI50 (KM12): 353 nM (active)
- GI50 (LOX IMVI): 99.3 nM (active)
- GI50 (M14): 332 nM (active)
- GI50 (MCF7): 111 nM (active)
- GI50 (MDA-MB-231): 347 nM (active)
- GI50 (MDA-MB-435): 247 nM (active)
- GI50 (MDA-N): 138 nM (active)
- GI50 (MOLT-4): < 18.4 nM (active)
- GI50 (Malme-3M): 98.9 nM (active)
- GI50 (NCI-H226): 973 nM (active)
- GI50 (NCI-H23): 43.9 nM (active)
- GI50 (NCI-H460): 23.3 nM (active)
- GI50 (NCI-H522): < 10 nM (active)
- GI50 (NCI/ADR-RES): 97.3 nM (active)
- GI50 (OVCAR-3): 103 nM (active)
- GI50 (OVCAR-4): 147 nM (active)
- GI50 (OVCAR-5): 592 nM (active)
- GI50 (OVCAR-8): 188 nM (active)
- GI50 (PC-3): 65 nM (active)
- GI50 (RXF 393): 35.6 nM (active)
- GI50 (SF-268): < 27.2 nM (active)
- GI50 (SF-295): 76.7 nM (active)
- GI50 (SF-539): 39.4 nM (active)
- GI50 (SK-MEL-28): 262 nM (active)
- GI50 (SK-MEL-2): 237 nM (active)
- GI50 (SK-MEL-5): 29.6 nM (active)
- GI50 (SK-OV-3): 302 nM (active)
- GI50 (SN12C): < 21 nM (active)
- GI50 (SNB-19): 372 nM (active)
- GI50 (SNB-75): 129 nM (active)
- GI50 (SR): 54.5 nM (active)
- GI50 (SW-620): 168 nM (active)
- GI50 (T47D): 299 nM (active)
- GI50 (TK-10): < 39.1 nM (active)
- GI50 (U-251): 194 nM (active)
- GI50 (UACC-257): 244 nM (active)
- GI50 (UACC-62): 330 nM (active)
- GI50 (UO-31): 57 nM (active)

SMILES: Ic1ccc2c(c1)N(c1ccccc1)c1cc([N-]c3ccc4nc5ccc(I)cc5[n+](-c5ccccc5)c4c3)ccc1N2
- GI50 (786-0): > 100000 nM (inactive)
- GI50 (A498): > 100000 nM (inactive)
- GI50 (A549): > 100000 nM (inactive)
- GI50 (ACHN): > 100000 nM (inactive)
- GI50 (BT-549): > 100000 nM (inactive)
- GI50 (CAKI-1): > 100000 nM (inactive)
- GI50 (CCRF-CEM): 15000 nM (inactive)
- GI50 (COLO 205): 16200 nM (inactive)
- GI50 (DU-145): > 100000 nM (inactive)
- GI50 (EKVX): 32200 nM (inactive)
- GI50 (HCC 2998): 67100 nM (inactive)
- GI50 (HCT-116): 35000 nM (inactive)
- GI50 (HCT-15): > 100000 nM
- GI50 (HL-60): 17900 nM (inactive)
- GI50 (HOP-62): 41300 nM (inactive)
- GI50 (HOP-92): > 100000 nM (inactive)
- GI50 (HT-29): 14800 nM (inactive)
- GI50 (Hs-578T): > 100000 nM (inactive)
- GI50 (IGROV-1): 43800 nM (inactive)
- GI50 (K562): 35000 nM (inactive)
- GI50 (KM12): 44200 nM (inactive)
- GI50 (M14): 26900 nM (inactive)
- GI50 (MCF7): 26400 nM (inactive)
- GI50 (MDA-MB-231): 23700 nM (inactive)
- GI50 (MDA-MB-435): 31400 nM (inactive)
- GI50 (MDA-N): 37600 nM (inactive)
- GI50 (MOLT-4): 68900 nM (inactive)
- GI50 (Malme-3M): 38000 nM (inactive)
- GI50 (NCI-H226): > 100000 nM (inactive)
- GI50 (NCI-H23): 41300 nM (inactive)
- GI50 (NCI-H460): 42000 nM (inactive)
- GI50 (NCI-H522): 22800 nM (inactive)
- GI50 (NCI/ADR-RES): > 100000 nM (inactive)
- GI50 (OVCAR-3): 2920 nM (inactive)
- GI50 (OVCAR-4): > 100000 nM (inactive)
- GI50 (OVCAR-5): > 100000 nM (inactive)
- GI50 (OVCAR-8): > 100000 nM (inactive)
- GI50 (PC-3): 55700 nM (inactive)
- GI50 (RPMI-8226): 32100 nM (inactive)
- GI50 (RXF 393): > 100000 nM (inactive)
- GI50 (SF-268): > 100000 nM (inactive)
- GI50 (SF-295): > 100000 nM (inactive)
- GI50 (SF-539): > 100000 nM (inactive)
- GI50 (SK-MEL-28): > 100000 nM (inactive)
- GI50 (SK-MEL-2): > 100000 nM (inactive)
- GI50 (SK-MEL-5): 33400 nM (inactive)
- GI50 (SK-OV-3): > 100000 nM (inactive)
- GI50 (SN12C): > 100000 nM (inactive)
- GI50 (SNB-19): > 100000 nM (inactive)
- GI50 (SNB-75): > 100000 nM (inactive)
- GI50 (SR): 32600 nM (inactive)
- GI50 (SW-620): 51900 nM (inactive)
- GI50 (T47D): 61700 nM (inactive)
- GI50 (TK-10): > 100000 nM (inactive)
- GI50 (U-251): 45600 nM (inactive)
- GI50 (UACC-257): 31300 nM (inactive)
- GI50 (UACC-62): 69300 nM (inactive)
- GI50 (UO-31): > 100000 nM (inactive)
